Assay results as given in US11059795B2, “Androgen receptor modulators and methods for their use” (ESSA Pharma, Inc., priority 2018, dated 2021).

Assays:
[1] = Microsomal stability assay, mouse liver microsomes; assay type: in vitro ADME; details: mouse, liver microsomes, pH 7.4, mouse liver microsomes, 1 μM compound, 0.5 mg/mL protein, 37° C.; read-out: MLM +30/− NADPH: Clint (μL/min/mg protein)
Method: (§1) Microsomal stability assay is a widely used in vitro model to characterize the metabolic conversion by phase I enzymes, such as cytochrome P450 (CYP) enzymes. Since metabolism is known to be highly variable in different species, microsomal stability assay is commonly run in multiple species. Metabolic stability of testing compound can be evaluated using human, rat, mouse, or other animal liver or intestine microsomes to predict intrinsic clearance.
(§2) The assay was carried out in 96-well microtiter plates at 37° C. Reaction mixtures (25 μL) contained a final concentration of 1 μM test compound, 0.5 mg/mL liver microsomes protein, and 1 mM NADPH and/or 1 mM UDPGA (with alamethicin) in 100 mM potassium phosphate, pH 7.4 buffer with 3 mM MgCl2. The incubation was done with N=1, but duplicate incubation at each time point can be prepared if necessary. At each of the time points (for example, 0, 15, 30, and 60 minutes), 150 μL of quench solution (100% acetonitrile with 0.1% formic acid) with internal standard was transferred to each well. Besides the zero minute controls, mixtures containing the same components except the NADPH can also be prepared as the negative control. Verapamil was included as a positive control to verify assay performance. Plates were sealed, vortexed, and centrifuged at 4° C. for 15 minutes at 4000 rpm. The supernatant is transferred to fresh plates for LC/MS/MS analysis.
(§3) Summarized conditions: [Compound]=[…], [LM]=0.5 mg/mL, [NADPH]=1 mM and/or [UDPGA]=1 mM, Buffer=100 mM Potassium Phosphate, pH 7.4 with 3 mM MgCl2, Time=0, 15, 30, and 60 min, and Temperature=37° C.
(§4) All samples were analyzed on LC/MS/MS using an AB Sciex API 4000 instrument, coupled to a Shimadzu LC-20AD LC Pump system. Analytical samples were separated using a Waters Atlantis T3 dC18 reverse phase HPLC column (20 mm×2.1 mm) at a flow rate of 0.5 mL/min. The mobile phase consisted of 0.1% formic acid in water (solvent A) and 0.1% formic acid in 100% acetonitrile (solvent B).
(§5) The extent of metabolism is calculated as the disappearance of the test compound, compared to the 0-min time incubation. Initial rates are calculated for the compound concentration and used to determine half-life (t½) values and subsequently, the intrinsic clearance (Clint). Clint=(0.693)(1/t½ (min))(g of liver/kg of body weight)(mL incubation/mg of microsomal protein)(45 mg of microsomal protein/g of liver weight)

[2] = target: T1, androgen receptor (AR) (Homo sapiens, UniProt P10275, T878A); assay: Androgen-induced PSA (6.1 kb)-luciferase reporter assay in LNCaP cells; assay type: cell-based; details: LNCaP cells transfected with PSA (6.1 kb)-luciferase reporter, R1881 1 nM, 24 h; read-out: PSA-Luc IC50 Range
T1 construct: LNCaP cells were transiently transfected with the PSA (6.1 kb)-luciferase reporter for 24 h; endogenous in cells; host or cells: LNCaP
T1 sequence (P10275 1-920 T878A): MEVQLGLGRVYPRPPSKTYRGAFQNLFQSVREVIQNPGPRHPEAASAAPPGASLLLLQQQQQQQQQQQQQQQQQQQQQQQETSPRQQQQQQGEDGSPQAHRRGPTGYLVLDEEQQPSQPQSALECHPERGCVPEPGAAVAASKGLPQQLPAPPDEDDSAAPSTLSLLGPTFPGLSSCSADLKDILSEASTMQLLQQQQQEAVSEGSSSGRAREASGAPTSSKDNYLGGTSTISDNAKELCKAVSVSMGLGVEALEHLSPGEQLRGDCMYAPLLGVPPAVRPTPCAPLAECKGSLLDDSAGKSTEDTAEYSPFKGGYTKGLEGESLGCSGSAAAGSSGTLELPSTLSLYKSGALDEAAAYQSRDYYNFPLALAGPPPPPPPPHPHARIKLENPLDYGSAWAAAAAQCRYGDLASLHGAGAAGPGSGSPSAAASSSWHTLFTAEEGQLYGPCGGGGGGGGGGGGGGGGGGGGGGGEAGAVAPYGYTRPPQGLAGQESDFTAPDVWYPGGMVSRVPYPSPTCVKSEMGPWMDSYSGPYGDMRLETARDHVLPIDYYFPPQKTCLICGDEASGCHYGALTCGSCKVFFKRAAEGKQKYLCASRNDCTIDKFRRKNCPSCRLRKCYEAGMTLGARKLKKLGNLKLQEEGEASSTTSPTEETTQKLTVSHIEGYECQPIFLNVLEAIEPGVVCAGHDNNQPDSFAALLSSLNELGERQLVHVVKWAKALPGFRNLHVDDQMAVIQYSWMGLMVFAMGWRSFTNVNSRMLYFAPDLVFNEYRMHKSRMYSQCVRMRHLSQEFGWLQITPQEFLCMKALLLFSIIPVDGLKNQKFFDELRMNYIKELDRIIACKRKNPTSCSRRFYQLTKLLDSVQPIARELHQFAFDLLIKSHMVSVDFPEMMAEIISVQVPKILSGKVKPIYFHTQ
Method: The PSA (6.1 kb)-luciferase reporter contains functional AREs (androgen response elements) to which AR binds in response to androgen to induce luciferase activity.
Cells were lysed using Passive Lysis Buffer (Promega) and then collected into V-bottom 96-well tissue culture plates. Lysates were centrifuged at 4° C. for 5 minutes at 3000 rpm. To measure luminescence of LNCaP cell lysates the Firefly Luciferase Assay System (Promega) was employed, according to manufacturer's protocol. Relative luminescence units (RLU) in cell lysates were detected for 10 seconds using Promega GloMax-Multi Detection Luminometer (Promega). Values were normalized to protein content. GraphPad Prism graphing software was used to calculate IC50 values.
Comparisons between treatment and control groups were compared using Two-Way ANOVA with post-hoc Dunnett's and Tukey's tests. Differences were considered statistically significant at P values less than 0.05.

[3] = Hepatocyte stability assay, mouse hepatocytes; assay type: in vitro ADME; details: mouse, cryopreserved hepatocytes, 1 μM compound, 0.5 million cells/mL, 37° C., read-out: MH +/− NADPH: Clint (μL/min/million cells)
Description: The […] of in vitro intrinsic clearance (Clint) for drug candidates in the early discovery stage is common practice in the pharmaceutical industry. The Clint values of drug candidates can help to confirm whether metabolism is the main clearance pathway when it is compared with the total body clearance in vivo. Hepatocytes are among the routinely used in vitro systems for measuring clearance. Hepatocytes have been reported to retain most of the phase I and phase II metabolic activities, and therefore, it is a useful tool to estimate the intrinsic clearance for potential drug candidates.
Metabolic stability of testing compound were be evaluated using human and mouse hepatocytes and can also be use rat, mouse, or other animal hepatocytes to predict intrinsic clearance. Cryopreserved hepatocytes were removed from the liquid nitrogen tank and thawed in a 37° C. water bath. As soon as the cells pulled away from the vial wall, they were decanted into 48 ml of warm HT medium. Cells were centrifuged for four minutes at 420 rpm (50 g). After removing the supernatant, pellet was re-suspended in warm DMEM medium. Cell density was counted by a hemacytometer.
The assay was carried out in 96-well microtiter plates. Compounds were incubated for 0, 60, 120, and 180 minutes at 37° C. with hepatocytes. Reaction mixtures (50 μL) contained a final concentration of 1 μM test compound, 0.5 million cells/mL hepatocytes in the DMEM medium. At each of the time points (for example, 0, 1, 2, and 3 hours), 200 μL of quench solution (100% acetonitrile with 0.1% formic acid) with internal standard was transferred to each well. Midazolam was included as a positive control to verify assay performance. Plates were sealed and centrifuged at 4° C. for 15 minutes at 4000 rpm. The supernatant is transferred to fresh plates for LC/MS/MS analysis.
Summarized conditions (customizable): [Compound]=[…], Positive control: midazolam and/or naloxone, [Hepatocyte]=0.5 million cells/Ml, time=0, 60, 120, and 180 min, t=37° C.
as §4
The extent of metabolism was calculated as the disappearance of the test compound, compared to the 0-min control reaction incubations. Initial rates were calculated for the compound concentration and used to determine t½ values and subsequently, the intrinsic clearance, Clint. Clint=(0.693)(1/t½(min))(mL incubation/million cells)

[4] = Microsomal stability assay, human liver microsomes; assay type: in vitro ADME; details: pH 7.4, 1 μM compound, 0.5 mg/mL protein, 37° C., read-out: HLM +/− NADPH: Clint (μL/min/mg protein)
Method: as §1, §2, §3, §4, §5

Structure (SMILES) | microsomal CLint at 1 μM [1] [µL/min/mg] | IC50 [2] [nM] | hepatocyte CLint at 1 μM [3] [µL/min/1e6 cells] | microsomal CLint at 1 μM [4] [µL/min/mg]
CC(=O)Nc1nc(COc2ccc(C(C)(C)c3cc(Cl)c(OCCCl)c(C#N)c3)cc2)co1 [Compound A140] | ≥ 48 | < 500 | ≥ 18 | ≥ 48
COc1ncc(COc2ccc(C(C)(C)c3cc(Cl)c(OCCCl)c(C#N)c3)cc2)o1 [Compound A112, 3-chloro-2-(2-chloroethoxy)-5-(2-(4-((2-methoxyoxazol-5-yl)methoxy)phenyl)propan-2-yl)benzonitrile] | 12 to 48 | < 500 | 4 to 18 | < 12
CC(C)(c1ccc(OCc2ccnc(C#N)n2)cc1)c1cc(Cl)c(OCCCl)c(C#N)c1 [Compound A200] | < 12 | 500 to 2000 | 4 to 18 | < 12
CC(C)S(=O)(=O)Nc1nc(COc2ccc(C(C)(C)c3cc(Cl)c(OCCCl)c(C#N)c3)cc2)co1 [Compound A132] | < 12 | 500 to 2000 | < 4 | < 12
CC(C)(c1ccc(CNc2ccnc(NS(C)(=O)=O)n2)cc1)c1cc(Cl)c(OCCCl)c(C#N)c1 [Compound A120] | < 12 | > 2000 | 4 to 18 | ≥ 48
CSc1nc(C)c(COc2ccc(C(C)(C)c3cc(Cl)c(OCCCl)c(C#N)c3)cc2)o1 [Compound A119] | ≥ 48 | < 500 | 4 to 18 | ≥ 48
CC(C)(c1ccc(C(=O)Nc2ccnc(N)n2)cc1)c1cc(Cl)c(OCCCl)c(Cl)c1 [Compound A146] | < 12 |  | ≥ 18 | 12 to 48
CC(C)(C)C(=O)N(c1ccc(OCc2coc(NS(C)(=O)=O)n2)cc1)c1cc(Cl)c(OCCCl)c(C#N)c1 [Compound A127] | 12 to 48 |  | 4 to 18 | 12 to 48

Further lines, results first:

microsomal CLint at 1 μM [1] [µL/min/mg] | IC50 [2] [nM] | hepatocyte CLint at 1 μM [3] [µL/min/1e6 cells] | microsomal CLint at 1 μM [4] [µL/min/mg] | Structure (SMILES)
≥ 48 | < 500 | ≥ 18 | ≥ 48 | CC(C)(c1ccc(OCc2cnc(NS(C)(=O)=O)o2)cc1)c1cc(Cl)c(OCCCl)c(C#N)c1 [Compound A133]
< 12 | < 500 | < 4 | < 12 | CC(C)(c1ccc(OCc2coc(S(C)(=O)=O)c2)cc1)c1cc(Cl)c(OCCCl)c(C#N)c1 [Compound A208]
< 12 | 500 to 2000 | < 4 | < 12 | CC(C)(c1ccc(OCc2cccc(NS(C)(=O)=O)n2)cc1)c1cc(Cl)c(OCCCl)c(C#N)c1 [Compound A194]
12 to 48 | < 500 | 4 to 18 | < 12 | CC(C)(c1ccc(OCc2cncc(NS(C)(=O)=O)n2)cc1)c1cc(Cl)c(OCCCl)c(C#N)c1 [Compound A185, N-(6-((4-(2-(3-chloro-4-(2-chloroethoxy)-5-cyanophenyl)propan-2-yl)phenoxy)methyl)pyrazin-2-yl)methanesulfonamide]
< 12 | 500 to 2000 | 4 to 18 | 12 to 48 | CC(C)(c1ccc(OCc2[nH]cnc2S(C)(=O)=O)cc1)c1cc(Cl)c(OCCCl)c(Cl)c1 [Compound A71]
< 12 | < 500 | < 4 | 12 to 48 | CC(C)(c1ccc(OCc2ccnnc2NS(C)(=O)=O)cc1)c1cc(Cl)c(OCCCl)c(C#N)c1 [Compound A102]
< 12 | < 500 | ≥ 18 | < 12 | CC(C)(c1ccc(OCc2cnc(Cl)o2)cc1)c1cc(Cl)c(OCCCl)c(C#N)c1 [Compound A115]
12 to 48 | 500 to 2000 | 4 to 18 | < 12 | Cc1nc(COc2ccc(C(C)(C)c3cc(Cl)c(OCCCl)c(C#N)c3)cc2)cc(NS(C)(=O)=O)n1 [Compound A99]
12 to 48 |  | ≥ 18 | 12 to 48 | CC(C)(c1ccc(OCc2csc(S(C)(=O)=O)n2)cc1)c1cc(Cl)c(OCCCl)c(C#N)c1 [Compound A144]
≥ 48 | < 500 |  | 12 to 48 | CC(C)(c1ccc(OCc2cnc(S(C)(=O)=O)o2)cc1)c1cc(Cl)c(OCCCl)c(Cl)c1 [Compound A57]
